These are literature values, as cited in US7799817B2, “Compositions and methods for sleep regulation” (LifeScape BioSciences Inc, priority 2004, dated 2010).

Each structure is given as a SMILES string. Where two headings read alike, the source gives them in different places.

For series [1] the following is noted: adult human.
Series [2] has as its system jet lag. As to conditions: for mean global jet lag score: 0=no jet lag, 100=extreme jet lag.
In series [3] the test system is jet lag.

Take `COc1ccc2[nH]cc(CCNC(C)=O)c2c1` [melatonin, N-acetyl-5-methoxytryptamine]: the half-life result in series [1] was “approximately 45 minutes”. The “mean global jet lag score” value is 31 with jet lag [2] (eastward flights, four trials combined, placebo 51) and 22 with jet lag [2] (westward flights, two RCTs, placebo 41). Also, the “jet lag after melatonin administration” value in the series with jet lag [2] (eight of ten randomized, placebo-controlled trials) is listed as “less jet lag”. For the same compound, in the series on jet lag [3] (0.5 mg fast release versus 5 mg), the “effectiveness of lower dose for symptoms of jet lag unrelated to sleep” value is recorded as “almost as effective as the higher dose”. In addition, in the series with jet lag [3] (5 mg versus 0.5 mg fast release), the “effect of higher dose on sleep quality and sleep latency” value was “greater effect on sleep quality and sleep latency than the lower dose”. In addition, the “effectiveness of slow release form” value in the series on jet lag [3] (slow release 2 mg versus 5 mg or 0.5 mg fast release) is “less effective than either 5 mg or 0.5 mg (fast release)”.
